# Data as given in patent US8980226B2, “Aerosolized fosfomycin/aminoglycoside combination for the treatment of bacterial respiratory infections” (Gilead Sciences, Inc., priority 2004, dated 2015).
# Read-outs that look alike come from different tables or passages of the source.
# What was measured:
# Format in all cases: cell-based
# [1] = system: 100 P. aeruginosa strains isolated from lung sputum samples from cystic fibrosis patients; test: MIC50 and MIC90 for 100 P. aeruginosa strains, CF mucin binding model (+mucin); conditions: Pseudomonas aeruginosa; for MIC90: read-out: MIC90 Mucin (+)
# Procedure: The MICs of fosfomycin alone, tobramycin alone, or combinations of fosfomycin plus tobramycin were determined by the agar-plate dilution method according to NCCLS guidelines (NCCLS, 2003). Bacterial strains were streaked onto Trypic Soy Agar plates (PML Microbiologicals, Wilsonville, Oreg.) containing 5% defibrinated sheep blood (hereafter referred to as blood agar plates) and incubated overnight at 35° C. Two to three bacterial colonies from the overnight cultures were inoculated into 3 mL of sterile normal saline, vortexed briefly, and adjusted to a 0.5 McFarland standard (NCCLS, 2003). The bacterial suspension was diluted 1:40 in sterile normal saline and served as the inoculum. Mueller-Hinton agar plates (hereafter referred to as MHA) were prepared by combining 16 g of agarose (Becton-Dickinson, Sparks, Md.), 22 g of Mueller-Hinton broth powder (Becton-Dickinson, Sparks, Md.), and adjusted to 1 L with distilled water. The agar was sterilized by autoclaving, cooled to 55° C., and supplemented with 25 μg/mL of glucose-6-phosphate (Sigma-Aldrich, St. Louis, Mo.). Twenty-five mL of cooled agar was aliquoted into 50 mL conical tubes and supplemented with appropriate concentrations of antibiotic to achieve concentrations ranging from 0.06 μg/mL to 512 μg/mL. After gently mixing the agar and antibiotic, the suspension was poured into sterile 100 mm petri dishes and allowed to solidify at room temperature. The antibiotic agar plates were inoculated with approximately 2×10^4 CFU/spot with a 48-point inoculator (Sigma-Aldrich, St. Louis, Mo.). The MIC was defined as the lowest concentration of antibiotic (s) that prevented visible growth after incubation for 18-20 hours at 35° C. The efficacy of a particular antibiotic or antibiotic combination on large populations of P. aeruginosa was determined by calculating the MIC50 and MIC90 values. The MIC50 value was defined as the concentration of antibiotic(s) which inhibited 50% of the P. aeruginosa strains. The MIC90 value was defined as the concentration of antibiotic(s) which inhibited 90% of the P. aeruginosa strains (Wiedemann and Grimm, 1996).
# The MICs of fosfomycin alone, tobramycin alone, or combinations of fosfomycin plus tobramycin were determined for P. aeruginosa strains in the presence of porcine gastric mucin to evaluate the effect of mucin and protein binding on antibiotic activity. Methodologies were identical to that described in Example 5, Method A, with the exception that 2% (weight/volume) porcine gastric mucin (Sigma Chemical Co., St. Louis, Mo.) was added to the MHA prior to autoclaving.
# [2] = system: E. coli ATCC 25922; test: MBC/MIC, broth microdilution
# Procedure: (§1) “Minimal bactericidal concentration (MBC)” means the lowest concentration of antibiotic that results in ≧3 Log10 of bacterial killing.
# (§2) The MICs of amikacin, arbekacin, dibekacin, gentamicin, kanamycin, netilimicin, neomycin, streptomycin, and tobramycin alone were determined for P. aeruginosa ATCC 27853 by the broth-microdilution method according to NCCLS standards (NCCLS, 2003). E. coli ATCC 25922 and S. aureus ATCC 29213 were used as quality control stains. Bacterial strains were streaked onto blood agar plates, and incubated at 35° C. for 18 hours. Two to three bacterial colonies from the overnight cultures were inoculated into 3 mL of sterile normal saline, vortexed briefly, and adjusted to a 0.5 McFarland standard (NCCLS, 2003). The bacterial suspension was diluted 1:100 in cation-adjusted Mueller-Hinton broth (hereafter referred to as CAMHB). Fifty microliters of bacterial inoculum (approximately 2×10^5 CFU/mL) was pipeted into individual wells of 96-well plates containing 50 μl of CAMHB (Remel, Lenexa, Kanas) supplemented with 2-fold dilutions of antibiotics ranging in concentration from 0.125 μg/mL to 128 μg/mL. The MIC was defined as the lowest concentration of antibiotic (s) that prevented visible growth after incubation at 35° C. for 18-24 hours.
# (§3) The MBCs of fosfomycin, amikacin, arbekacin, dibikacin, gentamicin, kanamycin B, netilimicin, neomycin, streptomycin, or tobramycin alone for P. aeruginosa ATCC 27853, E. coli ATCC 25922, and S. aureus ATCC 29213 were determined by the broth microdilution method according to NCCLS standards (NCCLS, 1999). Bacterial strains were streaked onto blood agar plates and incubated at 35° C. for 18-24 hours. Two to three bacterial colonies from the overnight cultures were inoculated into 3 mL of sterile normal saline, vortexed briefly, and adjusted to a 0.5 McFarland standard (NCCLS, 2003). Fifty microliters of bacterial inoculum (approximately 2×10^5 CFU/mL) was pipeted into individual wells of 96-well plates containing 50 μl of CAMHB (Remel, Lenexa, Kanas) supplemented with 2-fold dilutions of antibiotics ranging in concentration from 0.125 μg/mL to 128 μg/mL. Plates were incubated at 35° C. for 18-24 hours and MIC determined as described in Example 5, Method C. The contents of wells showing no growth (MIC and above) were mixed with a pipetor and duplicate 10 μl samples spread onto blood agar plates. Culture plates were incubated at 35° C. for 18-24 hours and the number of bacterial colonies on each plate enumerated manually. Rejection values were determined by NCCLS methods which considers the final inoculum size, single or double sampling, pipetting error, and the Poisson distribution of sample responses (NCCLS, 1999). […] The MBC was defined as the ≧3 Log10 decrease in CFU/mL of the original inoculum as described by NCCLS standards (NCCLS, 1999). The MBC/MIC ratios were calculated by dividing the MBC by the MIC.
# [3] = system: P. aeruginosa ATCC 27853; test: MBC/MIC, broth microdilution
# Procedure: as §1, §2, §3
# [4] = system: S. aureus ATCC 29213; test: MBC/MIC, broth microdilution
# Procedure: as §1, §2, §3
# [5] = system: P. aeruginosa ATCC 27853; test: Time-kill kinetics in the presence of 2% porcine gastric mucin; conditions: for killing in time-kill curves / Time to reach bactericidal killing, antibiotic alone: P. aeruginosa ATCC 27853; for killing in time-kill curves: FIGS. 1-7, fosfomycin and tobramycin alone as comparators of the combination; for Time to reach bactericidal killing, antibiotic alone: single antibiotic, 32 μg/mL
# Procedure: Two to three bacterial colonies were inoculated into 10 mL CAMHB and incubated at 35° C. in a shaking water bath (250 rpm) for 18-24 hours. […] The resulting culture was adjusted to a 0.5 McFarland standard (NCCLS, 2003). […] Ten milliliter aliquots were then pipeted into 50 mL conical tubes. […] The killing activity of fosfomycin plus amikacin, arbekacin, dibikacin, gentamicin, kanamycin, […], neomycin, streptomycin, or tobramycin were also compared to the killing activity of their individual components alone. […] A no drug control was run in each experiment. Cultures were incubated with antibiotic at 35° C. in a shaking (250 rpm) water bath for 24 hours. […] Culture plates were incubated at 35° C. for 18-24 hours and the number of colonies enumerated manually. The limit of detection for the colony counting method was 1 Log10). Time-kill curves were constructed by plotting the Log10 number of CFU/mL culture versus time.
# [6] = 100 P. aeruginosa strains, 2% porcine gastric mucin
Compound,MIC90 [1],"MIC50 [1, 6]",MBC/MIC E. coli [2],MBC/MIC P. aeruginosa [3],MBC/MIC P. aeruginosa ([3]; listed as fosfomycin),MBC/MIC S. aureus [4],killing in time-kill curves [5],"Time to reach bactericidal killing, antibiotic alone [5]","MIC90 [1, 6]",MBC/MIC Aminoglycoside ([3]; aminoglycoside alone),"rank of killing activity, combinations and tobramycin alone compared ([5]; 16 ug/mL, FIGS. 8 and 9)"
C[C@@H]1O[C@@H]1P(=O)(O)O [Fosfomycin],128 µg/mL,64 µg/mL,8,≧8,≥ 8,1,bacteriostatic killing,not bactericidal,,,
NC[C@H]1O[C@H](O[C@H]2[C@H](O)[C@@H](O[C@H]3O[C@H](CO)[C@@H](O)[C@H](N)[C@H]3O)[C@H](N)C[C@@H]2N)[C@H](N)C[C@@H]1O [Tobramycin],,16 µg/mL,1,1,,8,bacteriostatic killing,1 h,64 µg/mL,1,most active antibiotic
